Tests used:
mice [1] = conditions: mouse, in vivo
mice [2] = conditions: mouse, in vivo, iv
mice [3] = conditions: mouse, in vivo; remark: listed apart in the source

Molecule | tremor symptoms and tremor time (side effects) 30 minutes after administration (mice [1]) | tremor symptoms and tremor time (side effects) 120 minutes after administration, compared with MVIIA (mice [1]) | antinociceptive effect 1 hour after injection (mice [2]) | duration of the maximal effect (mice [2]) | onset of antinociceptive effect after nasal administration (mice [3]) | time of maximal (strongest) antinociceptive effect after administration (mice [2]) | difference from the saline group at 8 hours (mice [3]) | time after which the effect disappears (mice [3])
CSCC[C@@H]1NC(=O)[C@H](CC(C)C)NC(=O)[C@H](CCCNC(=N)N)NC(=O)[C@H](CO)NC(=O)[C@@H]2CSSC[C@@H]3NC(=O)[C@H](CO)NC(=O)CNC(=O)[C@H]([C@@H](C)O)NC(=O)[C@H](CSSC[C@H](N)C(=O)N[C@@H](CCCCN)C(=O)NCC(=O)N[C@@H](CCCCN)C(=O)NCC(=O)N[C@@H](C)C(=O)N[C@@H](CCCCN)C(=O)N2)NC(=O)[C@H](CSSC[C@@H](C(N)=O)NC(=O)[C@H](CCCCN)NC(=O)CNC(=O)[C@H](CO)NC(=O)[C@H](CCCNC(=N)N)NC3=O)NC(=O)[C@H](CC(=O)O)NC(=O)[C@H](Cc2ccc(O)cc2)NC1=O [MVIIA, reference compound] | more obvious tremor symptoms and longer tremor time | – | – | – | – | – | – | –
CKGKGAKCSRLMYDCCTGSCRSGKCGGGYGRKKRRQRRR [MVIIA-d] | lower than that of MVIIA | no significant differences | showed antinociceptive effects | about 4 hours | immediate effect | – | – | –
CKGKGAKCSRLMYDCCTGSCRSGKCGGYGRKKRRQRRR [MVIIA-c] | lower than that of MVIIA | no significant differences | – | about 4 hours | immediate effect | 3 h | still significantly different | 10 h
CKGKGAKCSRLMYDCCTGSCRSGKCGYGRKKRRQRRR [MVIIA-b] | lower than that of MVIIA | no significant differences | showed antinociceptive effects | about 4 hours | immediate effect | – | still significantly different | 10 h
CKGKGAKCSRLMYDCCTGSCRSGKCYGRKKRRQRRR [MVIIA-a] | lower than that of MVIIA | no significant differences | showed antinociceptive effects | about 4 hours | immediate effect | – | – | –
